Source: patent publication US8129534B2, “Chemical compounds” (priority 2004, dated 2012)

Row | melting point [°C] | Compound
1 | 69 to 70 | O=C(Nc1ccnn1C1CCN(C/C=C/c2ccc(Cl)cc2)CC1)c1ccnc(Cl)c1
2 | 78 to 80 | O=C(Nc1cccnc1C1CCN(C/C=C/c2ccc(Cl)cc2)CC1)c1ccnc(Cl)c1
3 | 75 to 77 | O=C(Nc1cccnc1C1=CCN(C/C=C/c2ccc(Cl)cc2)CC1)c1ccnc(Cl)c1
